Holding throughout (assay type): binding
One assay addresses T1, TYK2 (Homo sapiens, UniProt P29597).
T1 construct: endogenous in cells; host or cells: Molt4 (ATCC CRL-1582) and Ramos (ATCC CRL-1596), mixed lysate 1:2
The experiment in a line: Kinobeads assay, TYK2. Particulars: mixed Molt4/Ramos lysate, read-out: Inhibition values (IC50) TYK2. On the procedure:
(§1) The compounds of the present invention as described in the previous examples were tested in a Kinobeads™ assay as described for ZAP-70 (WO-A 2007/137867). Briefly, test compounds (at various concentrations) and the affinity matrix with the immobilized aminopyrido-pyrimidine ligand 24 were added to cell lysate aliquots and allowed to bind to the proteins in the lysate sample. After the incubation time the beads with captured proteins were separated from the lysate. Bound proteins were then eluted and the presence of JAK1, JAK2, JAK3 and TYK2 was detected and quantified using specific antibodies in a dot blot procedure and the Odyssey infrared detection system. Dose response curves for individual kinases were generated and IC50 values calculated. Kinobeads™ assays for ZAP-70 (WO-A 2007/137867) and for kinase selectivity profiling (WO-A 2006/134056) have been previously described.
(§2) The affinity matrix was washed two times with 15 mL of lx DP buffer containing 0.2% NP40 (IGEPAL® CA-630, Sigma, #13021) and then resuspended in 1×DP buffer containing 0.2% NP40 (3% beads slurry).
(§3) 5×DP buffer: 250 mM Tris-HCl pH 7.4, 25% Glycerol, 7.5 mM MgCl2, 750 mM NaCl, 5 mM Na3VO4; filter the 5×DP buffer through a 0.22 μm filter and store in aliquots at −80° C. The 5×DP buffer is diluted with H2O to 1×DP buffer containing 1 mM DTT and 25 mM NaF.
(§4) Stock solutions of test compounds were prepared in DMSO. In a 96 well plate […] solution of diluted test compounds at 5 mM in DMSO were prepared. Starting with this solution a 1:3 dilution series (9 steps) was prepared. For control experiments (no test compound) a buffer containing 2% DMSO was used.
(§5) Molt4 cells (ATCC catalogue number CRL-1582) and Ramos cells (ATCC catalogue number CRL-1596) were grown in 1 L Spinner flasks (Integra Biosciences, #182101) in suspension in RPMI 1640 medium (Invitrogen, #21875-034) supplemented with 10% Fetal Bovine Serum (Invitrogen) at a density between 0.15×10^6 and 1.2×10^6 cells/mL. Cells were harvested by centrifugation, washed once with 1×PBS buffer (Invitrogen, #14190-094) and cell pellets were frozen in liquid nitrogen and subsequently stored at −80° C. Cells were homogenized in a Potter S homogenizer in lysis buffer: 50 mM Tris-HCl, 0.8% NP40, 5% glycerol, 150 mM NaCl, 1.5 mM MgCl2, 25 mM NaF, 1 mM sodium vanadate, 1 mM DTT, pH 7.5. One complete EDTA-free tablet (protease inhibitor cocktail, Roche Diagnostics, 1873580) per 25 mL buffer was added. The material was dounced 10 times using a mechanized POTTER S, transferred to 50 mL falcon tubes, incubated for 30 minutes on ice and spun down for 10 minutes at 20,000 g at 4° C. (10,000 rpm in Sorvall SLA600, precooled). The supernatant was transferred to an ultracentrifuge (UZ)-polycarbonate tube (Beckmann, 355654) and spun for 1 hour at 100.000 g at 4° C. (33.500 rpm in Ti50.2, precooled). The supernatant was transferred again to a fresh 50 mL falcon tube, the protein concentration was determined by a Bradford assay (BioRad) and samples containing 50 mg of protein per aliquot were prepared. The samples were immediately used for experiments or frozen in liquid nitrogen and stored frozen at −80° C.
(§6) Cell lysate (approximately 50 mg protein per plate) was thawed in a water bath at room temperature and then stored on ice. To the thawed cell lysate 1×DP 0.8% NP40 buffer containing protease inhibitors (1 tablet for 25 mL buffer; EDTA-free protease inhibitor cocktail; Roche Diagnostics 1873580) was added in order to reach a final protein concentration of 10 mg/mL total protein. The diluted cell lysate was stored on ice. Mixed Molt4/Ramos lysate was prepared by combining one volume of Molt4 lysate and two volumes of Ramos lysate (ratio 1:2).
(§7) To a 96 well filter plate (Multiscreen HTS, BV Filter Plates, Millipore #MSBVN1250) were added per well: 100 μL affinity matrix (3% beads slurry), […], of compound solution, and 50 μL of diluted lysate. […]

For the next assay, the target named is T2, JAK1 (Homo sapiens, UniProt P23458).
T2 construct: endogenous in cells; host or cells: Molt4 (ATCC CRL-1582) and Ramos (ATCC CRL-1596), mixed lysate 1:2
T2 sequence (P23458 whole entry): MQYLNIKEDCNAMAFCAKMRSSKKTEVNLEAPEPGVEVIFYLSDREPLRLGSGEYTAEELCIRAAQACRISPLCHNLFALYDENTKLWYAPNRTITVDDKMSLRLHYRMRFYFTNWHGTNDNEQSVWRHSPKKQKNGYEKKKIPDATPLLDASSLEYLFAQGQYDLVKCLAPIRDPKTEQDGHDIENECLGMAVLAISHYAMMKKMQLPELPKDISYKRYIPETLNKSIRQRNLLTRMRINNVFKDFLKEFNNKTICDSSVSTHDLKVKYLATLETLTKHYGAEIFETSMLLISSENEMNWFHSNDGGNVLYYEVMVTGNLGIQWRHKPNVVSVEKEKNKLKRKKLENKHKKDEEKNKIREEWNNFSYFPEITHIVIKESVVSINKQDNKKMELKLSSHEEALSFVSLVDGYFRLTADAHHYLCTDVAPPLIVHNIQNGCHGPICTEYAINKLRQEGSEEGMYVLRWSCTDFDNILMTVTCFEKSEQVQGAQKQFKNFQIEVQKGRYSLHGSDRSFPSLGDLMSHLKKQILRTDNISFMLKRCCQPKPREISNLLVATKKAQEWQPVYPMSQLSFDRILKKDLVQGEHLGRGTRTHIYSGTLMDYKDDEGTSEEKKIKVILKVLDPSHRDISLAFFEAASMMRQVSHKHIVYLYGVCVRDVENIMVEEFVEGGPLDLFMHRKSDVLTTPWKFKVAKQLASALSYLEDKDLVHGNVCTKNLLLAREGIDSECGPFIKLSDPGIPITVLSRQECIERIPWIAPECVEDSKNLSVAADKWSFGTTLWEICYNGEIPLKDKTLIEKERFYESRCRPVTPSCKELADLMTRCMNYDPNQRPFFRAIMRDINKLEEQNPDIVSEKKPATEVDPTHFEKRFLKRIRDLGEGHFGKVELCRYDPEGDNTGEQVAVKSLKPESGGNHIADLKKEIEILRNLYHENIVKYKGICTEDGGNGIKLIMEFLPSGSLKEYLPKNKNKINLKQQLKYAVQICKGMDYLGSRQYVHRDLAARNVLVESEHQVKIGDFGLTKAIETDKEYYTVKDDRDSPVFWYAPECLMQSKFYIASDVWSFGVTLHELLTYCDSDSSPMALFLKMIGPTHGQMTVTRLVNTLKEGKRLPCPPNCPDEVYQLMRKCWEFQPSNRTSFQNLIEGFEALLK
The experiment in a line: Kinobeads assay, JAK1. Particulars: mixed Molt4/Ramos lysate, read-out: Inhibition values (IC50) JAK1. How it is done: After the incubation time the beads with captured proteins were separated from the lysate. Bound proteins were then eluted and the presence of JAK1, JAK2, JAK3 and TYK2 was detected and quantified using specific antibodies in a dot blot procedure and the Odyssey infrared detection system. Dose response curves for individual kinases were generated and IC50 values calculated.
as §3
Stock solutions of test compounds were prepared in DMSO. […] Starting with this solution a 1:3 dilution series (9 steps) was prepared. For control experiments (no test compound) a buffer containing 2% DMSO was used.
Cells were homogenized in a Potter S homogenizer in lysis buffer: 50 mM Tris-HCl, 0.8% NP40, 5% glycerol, 150 mM NaCl, 1.5 mM MgCl2, 25 mM NaF, 1 mM sodium vanadate, 1 mM DTT, pH 7.5. […] The material was dounced 10 times using a mechanized POTTER S, transferred to 50 mL falcon tubes, incubated for 30 minutes on ice and spun down for 10 minutes at 20,000 g at 4° C. (10,000 rpm in Sorvall SLA600, precooled). […] (33.500 rpm in Ti50.2, precooled). The supernatant was transferred again to a fresh 50 mL falcon tube, the protein concentration was determined by a Bradford assay (BioRad) and samples containing 50 mg of protein per aliquot were prepared. The samples were immediately used for experiments or frozen in liquid nitrogen and stored frozen at −80° C.
Cell lysate (approximately 50 mg protein per plate) was thawed in a water bath at room temperature and then stored on ice. […] The diluted cell lysate was stored on ice. Mixed Molt4/Ramos lysate was prepared by combining one volume of Molt4 lysate and two volumes of Ramos lysate (ratio 1:2).
Plates were sealed and incubated for 3 hours in a cold room on a plate shaker (Heidolph tiramax 1000) at 750 rpm. Afterwards the plate was washed 3 times with 230 μL washing buffer (1×DP 0.4% NP40). […] The eluate was frozen quickly at −80° C. and stored at −20° C.
Afterwards the membrane was washed twice for 10 minutes with PBS buffer containing 0.2% Tween 20 at room temperature. […] Afterwards the membrane was washed twice for 10 minutes each with 1×PBS buffer containing 0.2% Tween 20 at room temperature. Then the membrane was rinsed once with PBS buffer to remove residual Tween 20. The membrane was kept in PBS buffer at 4° C. and then scanned with the Odyssey instrument. Fluorescence signals were recorded and analysed according to the instructions of the manufacturer.

A further assay addresses T3, JAK2 (Homo sapiens, UniProt O60674).
T3 construct: endogenous in cells; host or cells: Molt4 (ATCC CRL-1582) and Ramos (ATCC CRL-1596), mixed lysate 1:2
The experiment in a line: Kinobeads assay, JAK2. The settings on record: mixed Molt4/Ramos lysate, read-out: Inhibition values (IC50) JAK2. How it is done: as §1, §2, §3, §4, §5, §6, §7

The values that follow come from US20140179664A1, “Heterocyclyl Pyrimidine Analogues As JAK Inhibitors” (Cellzome Limited, priority 2011, published 2014).

T1 sequence (P29597 whole entry): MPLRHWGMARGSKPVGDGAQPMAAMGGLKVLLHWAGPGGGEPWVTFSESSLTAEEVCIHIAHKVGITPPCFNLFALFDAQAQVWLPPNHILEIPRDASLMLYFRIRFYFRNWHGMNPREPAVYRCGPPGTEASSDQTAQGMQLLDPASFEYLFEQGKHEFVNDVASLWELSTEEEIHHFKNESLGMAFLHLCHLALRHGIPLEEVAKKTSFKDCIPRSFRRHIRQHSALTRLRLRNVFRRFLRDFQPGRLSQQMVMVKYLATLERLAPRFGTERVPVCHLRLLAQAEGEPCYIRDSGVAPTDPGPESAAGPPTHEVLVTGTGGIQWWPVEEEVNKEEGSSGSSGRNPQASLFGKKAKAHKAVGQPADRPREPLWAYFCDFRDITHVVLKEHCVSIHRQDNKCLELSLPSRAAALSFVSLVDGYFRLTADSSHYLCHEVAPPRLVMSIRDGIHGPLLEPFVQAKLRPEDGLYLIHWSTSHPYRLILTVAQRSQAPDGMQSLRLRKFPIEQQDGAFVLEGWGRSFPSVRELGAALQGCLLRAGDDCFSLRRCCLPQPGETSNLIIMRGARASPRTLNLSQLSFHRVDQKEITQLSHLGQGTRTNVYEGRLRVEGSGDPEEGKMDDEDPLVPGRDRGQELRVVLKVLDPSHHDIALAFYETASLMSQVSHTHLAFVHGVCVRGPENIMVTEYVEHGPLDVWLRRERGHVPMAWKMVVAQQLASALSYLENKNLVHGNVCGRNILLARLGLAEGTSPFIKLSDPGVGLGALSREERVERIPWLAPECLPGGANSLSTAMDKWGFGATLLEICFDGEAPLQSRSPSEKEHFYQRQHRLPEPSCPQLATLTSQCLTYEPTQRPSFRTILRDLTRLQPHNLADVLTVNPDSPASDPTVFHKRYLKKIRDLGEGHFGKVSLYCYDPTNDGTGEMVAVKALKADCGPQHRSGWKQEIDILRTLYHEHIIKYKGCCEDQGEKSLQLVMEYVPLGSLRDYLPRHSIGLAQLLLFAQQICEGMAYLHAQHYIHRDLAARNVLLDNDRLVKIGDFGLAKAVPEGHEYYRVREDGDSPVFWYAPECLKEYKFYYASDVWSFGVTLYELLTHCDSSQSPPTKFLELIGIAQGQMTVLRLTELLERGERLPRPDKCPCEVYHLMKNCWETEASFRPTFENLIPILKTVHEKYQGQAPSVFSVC
T3 sequence (O60674 whole entry): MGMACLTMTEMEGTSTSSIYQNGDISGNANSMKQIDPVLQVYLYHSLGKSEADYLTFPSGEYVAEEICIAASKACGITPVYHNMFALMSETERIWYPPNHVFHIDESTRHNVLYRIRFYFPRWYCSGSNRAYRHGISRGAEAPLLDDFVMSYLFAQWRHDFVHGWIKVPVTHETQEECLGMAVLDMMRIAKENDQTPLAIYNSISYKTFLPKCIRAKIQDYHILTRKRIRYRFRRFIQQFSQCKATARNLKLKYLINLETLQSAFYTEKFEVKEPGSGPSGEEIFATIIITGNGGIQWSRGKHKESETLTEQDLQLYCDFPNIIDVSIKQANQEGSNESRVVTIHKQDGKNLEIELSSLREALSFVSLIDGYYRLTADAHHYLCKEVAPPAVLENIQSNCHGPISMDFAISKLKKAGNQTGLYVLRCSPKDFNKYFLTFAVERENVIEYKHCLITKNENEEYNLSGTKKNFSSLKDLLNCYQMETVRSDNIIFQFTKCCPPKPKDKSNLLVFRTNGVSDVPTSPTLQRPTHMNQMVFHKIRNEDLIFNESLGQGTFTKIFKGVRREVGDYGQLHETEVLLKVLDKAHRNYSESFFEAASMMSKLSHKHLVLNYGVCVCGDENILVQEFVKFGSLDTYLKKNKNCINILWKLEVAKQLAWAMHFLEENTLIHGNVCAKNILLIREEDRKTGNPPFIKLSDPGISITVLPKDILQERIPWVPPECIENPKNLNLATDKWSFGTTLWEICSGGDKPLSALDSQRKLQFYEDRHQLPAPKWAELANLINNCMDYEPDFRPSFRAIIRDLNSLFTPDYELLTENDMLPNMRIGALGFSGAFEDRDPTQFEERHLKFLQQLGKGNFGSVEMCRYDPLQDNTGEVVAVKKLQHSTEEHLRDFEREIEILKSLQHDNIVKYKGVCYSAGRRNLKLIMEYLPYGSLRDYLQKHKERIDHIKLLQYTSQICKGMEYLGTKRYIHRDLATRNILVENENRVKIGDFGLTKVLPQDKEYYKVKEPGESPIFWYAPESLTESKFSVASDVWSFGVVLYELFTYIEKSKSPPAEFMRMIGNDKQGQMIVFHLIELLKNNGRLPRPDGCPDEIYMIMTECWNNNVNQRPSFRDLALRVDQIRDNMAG

On to `COc1cccc([C@@H](CO)Nc2nc(Nc3cnn(C(C)C)c3)ncc2Cl)c1` [Compound 106], for which the IC50 at TYK2 was 1000 to 10000 nM; on JAK1 it was over 10000 nM; on JAK2, 1000 to 10000 nM.
In the case of `CC(C)n1cc(Nc2ncc(Cl)c(N[C@H](CO)c3cccnc3)n2)cn1` [Compound 107], the IC50 on TYK2, on JAK1 and on JAK2 was 1000 to 10000 nM in each case.
In the case of `NC(=O)Cn1cc(Nc2ncc(F)c(N[C@H](CO)c3ccccc3)n2)cn1` [Compound 108], the IC50 is 1000 to 10000 nM on TYK2, 1000 to 10000 nM on JAK1 and at least 10000 nM on JAK2.
For the molecule `CCn1cc(Nc2ncc(Cl)c(N[C@H](CO)c3ccccc3F)n2)cn1` [Compound 109], the IC50 on TYK2, at JAK1 and on JAK2 was 1000 to 10000 nM each time.
Turning to `CC(C)n1cc(Nc2ncc(Cl)c(N[C@H](CO)c3ccccc3F)n2)cn1` [Compound 110], the IC50 on TYK2 was in the range of 1000 to 10000 nM; on JAK1, 1000 to 10000 nM; on JAK2 it was 100 to 1000 nM.
Consider `CNC(=O)Cn1cc(Nc2ncc(F)c(N[C@H](CO)c3ccccc3)n2)cn1` [Compound 111], for which the IC50 is 1000 to 10000 nM on TYK2, 1000 to 10000 nM at JAK1 and at least 10000 nM on JAK2.
Regarding `O=C(Cn1cc(Nc2ncc(F)c(N[C@H](CO)c3ccccc3)n2)cn1)N1CCOCC1` [Compound 112], the IC50 at TYK2 was 100 to 1000 nM; on JAK1, 1000 to 10000 nM; at JAK2, at least 10000 nM.
On to `NCCCn1cc(Nc2ncc(Cl)c(N[C@H](CO)c3ccccc3)n2)cn1` [Compound 113], for which the IC50 on TYK2, at JAK1 and at JAK2 was 1000 to 10000 nM in each case.
On to `CC(C)OCCn1cc(Nc2ncc(Cl)c(N[C@H](CO)c3ccccc3)n2)cn1` [Compound 114], for which the IC50 at TYK2, on JAK1 and at JAK2 was 1000 to 10000 nM throughout.
As for `CC(C)NC(=O)Cn1cc(Nc2ncc(Cl)c(N[C@H](CO)c3ccccc3F)n2)cn1` [Compound 115], the IC50 on TYK2 lay within 100 to 1000 nM; at JAK1, 100 to 1000 nM; on JAK2 it was 1000 to 10000 nM.
For `C[C@@H](CO)NC(=O)Cn1cc(Nc2ncc(Cl)c(N[C@H](CO)c3ccccc3F)n2)cn1` [Compound 116], the concentration for half-maximal inhibition (IC50) at TYK2 lay in the range of 100 to 1000 nM; at JAK1 it was 100 to 1000 nM; on JAK2, 1000 to 10000 nM.
As for `Cn1cc(Nc2ncc(Cl)c(NC(CO)c3ccccc3Cl)n2)cn1` (stereo not drawn) [Compound 117], the IC50 on TYK2, at JAK1 and at JAK2 was 1000 to 10000 nM each time.
With `NC(=O)Cn1cc(Nc2ncc(Cl)c(NC(CO)c3ccccc3Cl)n2)cn1` (stereo not drawn) [Compound 118], the IC50 is 100 to 1000 nM on TYK2, 100 to 1000 nM on JAK1 and 1000 to 10000 nM on JAK2.
`CNC(=O)Cn1cc(Nc2ncc(Cl)c(NC(CO)c3ccccc3Cl)n2)cn1` (stereo not drawn) [Compound 119]: the results for the IC50 on TYK2, at JAK1 and at JAK2 were 1000 to 10000 nM, 100 to 1000 nM and 1000 to 10000 nM, respectively.
As to `OCCn1cc(Nc2ncc(Cl)c(NC(CO)c3ccccc3Cl)n2)cn1` (stereo not drawn) [Compound 120], the figures for the IC50 on TYK2, on JAK1 and on JAK2 were 100 to 1000 nM, 100 to 1000 nM and 1000 to 10000 nM, respectively.
On to `Cn1cc(Nc2ncc(Cl)c(NC(CO)c3cc(F)cc(F)c3)n2)cn1` (stereo not drawn) [Compound 121], for which the figures for the IC50 at TYK2, at JAK1 and at JAK2 were 1000 to 10000 nM, 100 to 1000 nM and 1000 to 10000 nM, respectively.
As for `OCCn1cc(Nc2ncc(Cl)c(NC(CO)c3cc(F)cc(F)c3)n2)cn1` (stereo not drawn) [Compound 122], the IC50 at TYK2, at JAK1 and on JAK2 was 100 to 1000 nM in each case.
Consider `CNC(=O)Cn1cc(Nc2ncc(Cl)c(NC(CO)c3cc(F)cc(F)c3)n2)cn1` (stereo not drawn) [Compound 123], for which the IC50 is 1000 to 10000 nM on TYK2, 100 to 1000 nM on JAK1 and 1000 to 10000 nM at JAK2.
As for `Cn1cc(Nc2ncc(Cl)c(NC(CO)c3cccc(N4CCOCC4=O)c3)n2)cn1` (stereo not drawn) [Compound 124], the IC50 on TYK2 is 1000 to 10000 nM; on JAK1 it was 1000 to 10000 nM; at JAK2 it was at least 10000 nM.
`CCC(Nc1nc(Nc2cnn(C)c2)ncc1Cl)c1ccccc1F` (stereo not drawn) [Compound 125]: the IC50 on TYK2, at JAK1 and at JAK2 was 1000 to 10000 nM each time.
Take `CCC(Nc1nc(Nc2cnn(CC(N)=O)c2)ncc1Cl)c1ccccc1F` (stereo not drawn) [Compound 126]: the IC50 on TYK2 was in the range of 1000 to 10000 nM; on JAK1, 100 to 1000 nM; on JAK2 it was 1000 to 10000 nM.
As to `CN(C)C(=O)C(Nc1nc(Nc2cnn(CCO)c2)ncc1Cl)c1ccccc1F` (stereo not drawn) [Compound 127], the IC50 on TYK2, at JAK1 and at JAK2 was 1000 to 10000 nM each time.
As to `O=C(NCC(F)(F)F)C(Nc1nc(Nc2cnn(CCO)c2)ncc1Cl)c1ccccc1F` (stereo not drawn) [Compound 128], the IC50 on TYK2 was 1000 to 10000 nM; at JAK1, 1000 to 10000 nM; on JAK2, at least 10000 nM.
`Cn1cc(Nc2ncc(Cl)c(NC(CO)c3cc(F)ccc3F)n2)cn1` (stereo not drawn) [Compound 129]: the half-inhibitory concentration (IC50) at TYK2, at JAK1 and at JAK2 was 100 to 1000 nM in each case.
Regarding `CNC(=O)Cn1cc(Nc2ncc(Cl)c(NC(CO)c3cc(F)ccc3F)n2)cn1` (stereo not drawn) [Compound 130], the IC50 was 100 to 1000 nM on TYK2, under 100 nM on JAK1 and 100 to 1000 nM at JAK2.
With `CNC(=O)Cn1cc(Nc2ncc(Cl)c(NC(CO)c3ccccc3C(F)(F)F)n2)cn1` (stereo not drawn) [Compound 131], the figures for the IC50 on TYK2, on JAK1 and at JAK2 were 100 to 1000 nM, 1000 to 10000 nM and 1000 to 10000 nM, respectively.
